Measurements reported in ChEMBL document CHEMBL1132734, “2-Nitro analogues of adenosine and 1-deazaadenosine: synthesis and binding studies at the adenosine A1, A2A and A3 receptor subtypes” (Bioorg Med Chem Lett, 2000).
pKi: −log10 of the molar value.

Tests used:
Adenosine receptor A2a = Adenosine receptor A2a (Rattus norvegicus, UniProt P30543); test: Binding affinity for adenosine A2A receptor of rat striatal membrane by displacing [3H]-ZM 241385; design: species or system Striatum
Adenosine receptor A3 = biological target: T1, Adenosine receptor A3 (Homo sapiens, UniProt P0DMS8); test: Binding affinity for Adenosine A3 receptor expressed in HEK 293 cells by displacing i[125I]-ABMECA; type: cell-based, HEK293
T1 sequence (P0DMS8 whole entry): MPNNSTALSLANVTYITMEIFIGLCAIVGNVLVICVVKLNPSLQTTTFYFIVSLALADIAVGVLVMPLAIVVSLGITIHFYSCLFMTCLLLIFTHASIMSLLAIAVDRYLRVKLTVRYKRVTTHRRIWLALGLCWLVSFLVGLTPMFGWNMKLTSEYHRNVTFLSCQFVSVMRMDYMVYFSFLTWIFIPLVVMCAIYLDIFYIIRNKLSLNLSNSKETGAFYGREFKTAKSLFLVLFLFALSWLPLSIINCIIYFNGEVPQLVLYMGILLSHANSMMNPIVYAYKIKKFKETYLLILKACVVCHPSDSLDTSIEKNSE

Adenosine receptor A1 = biological target: T2, Adenosine receptor A1 (Rattus norvegicus, UniProt P25099); test: Binding affinity for Adenosine A1 receptor of rat cortical membrane by displacing [3H]DPCPX
T2 sequence (P25099 whole entry): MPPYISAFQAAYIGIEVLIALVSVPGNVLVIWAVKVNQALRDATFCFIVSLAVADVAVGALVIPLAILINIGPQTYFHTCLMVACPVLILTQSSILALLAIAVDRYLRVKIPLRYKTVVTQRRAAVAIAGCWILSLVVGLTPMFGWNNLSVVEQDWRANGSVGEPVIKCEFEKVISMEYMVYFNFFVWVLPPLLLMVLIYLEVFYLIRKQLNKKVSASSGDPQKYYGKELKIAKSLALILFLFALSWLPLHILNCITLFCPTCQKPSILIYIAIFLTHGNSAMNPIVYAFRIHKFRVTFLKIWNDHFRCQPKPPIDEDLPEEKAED

[1] = biological target: Adenosine receptor A2a (Rattus norvegicus) (UniProt P30543); test: Binding affinity for adenosine A2A receptor of rat striatal membrane by displacing [3H]ZM-241385
Chain of Adenosine receptor A2a (Rattus norvegicus) (P30543 whole entry): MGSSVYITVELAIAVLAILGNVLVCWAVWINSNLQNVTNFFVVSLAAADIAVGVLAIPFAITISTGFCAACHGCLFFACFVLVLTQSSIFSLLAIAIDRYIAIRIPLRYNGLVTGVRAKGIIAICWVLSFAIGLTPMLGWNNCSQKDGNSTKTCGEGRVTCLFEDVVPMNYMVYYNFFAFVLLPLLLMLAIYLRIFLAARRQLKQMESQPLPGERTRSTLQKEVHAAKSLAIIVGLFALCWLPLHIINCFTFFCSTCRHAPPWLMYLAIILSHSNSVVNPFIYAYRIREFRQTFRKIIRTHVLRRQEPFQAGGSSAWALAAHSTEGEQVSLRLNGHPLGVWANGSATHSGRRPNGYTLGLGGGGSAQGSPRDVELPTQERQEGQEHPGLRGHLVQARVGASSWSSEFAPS

Chain of Adenosine receptor A2a (P30543 whole entry): as above

Row | SMILES | pKi (Adenosine receptor A2a) | pKi (Adenosine receptor A3) | pKi (Adenosine receptor A1) | Displacement [1]
1 | O=[N+]([O-])c1cc(NCc2cccc(I)c2)c2ncn([C@@H]3O[C@H](CO)[C@@H](O)[C@H]3O)c2n1 | 6.68 | 8.01 | 6.96 | 
2 | O=[N+]([O-])c1nc(NCc2cccc(I)c2)c2ncn([C@@H]3O[C@H](CO)[C@@H](O)[C@H]3O)c2n1 | 5.84 | 7.92 | 6.86 | 
3 | O=[N+]([O-])c1nc(NCc2ccccc2)c2ncn([C@@H]3O[C@H](CO)[C@@H](O)[C@H]3O)c2n1 |  | 6.79 |  | 20%
4 | CONc1nc([N+](=O)[O-])nc2c1ncn2[C@@H]1O[C@H](CO)[C@@H](O)[C@H]1O |  | 7.45 | 5.94 | 9%
5 | O=[N+]([O-])c1nc(NC2CCCC2)c2ncn([C@@H]3O[C@H](CO)[C@@H](O)[C@H]3O)c2n1 | 5.45 | 6.65 | 7.33 | 

The remaining lines, values ahead:

Row | pKi (Adenosine receptor A2a) | pKi (Adenosine receptor A3) | pKi (Adenosine receptor A1) | Displacement [1] | SMILES
6 | 6.36 | 6.67 | 6.19 |  | Nc1cc([N+](=O)[O-])nc2c1ncn2[C@@H]1O[C@H](CO)[C@@H](O)[C@H]1O
7 |  | 6.47 | 7.28 | 52% | O=[N+]([O-])c1cc(NC2CCCC2)c2ncn([C@@H]3O[C@H](CO)[C@@H](O)[C@H]3O)c2n1
8 | 6.54 | 6.69 | 6.46 |  | Nc1nc([N+](=O)[O-])nc2c1ncn2[C@@H]1O[C@H](CO)[C@@H](O)[C@H]1O
